In patent publication US12202827B2, “Aldosterone synthase inhibitor” (DAMIAN PHARMA AG, priority 2016, dated 2025):
Where two headings read alike, the source gives them in different places.

Columns and labels:
[1] = Dynamic Vapour Sorption (DVS); type: physicochemical
Method: The Dynamic Vapour Sorption (DVS) studies were performed using a Surface Measurement Systems Ltd. DVS-1 No Video. The sample was loaded into a balance pan, typically 20-30 mg, and equilibrated at 0% RH. After the material was dried, the RH was increased with 10% per step for 1 hour per increment, ending at 95% RH. After completion of the sorption cycle, the sample was dried using the same method. The software used for data collection was DVSWin v3.01 No Video. Data analysis was performed using DVS Standard Analysis Suite v6.3.0 (Standard).

[2] = up to 225° C., TGA/DSC
Method: The thermogravimetric analysis and differential scanning calorimetry (TGA/DSC) studies were performed using a Mettler Toledo TGA/DSC1 STARe System with a 34-position auto sampler. The samples were made using Al crucibles (40 μL; pierced). Typically 5-10 mg of sample was loaded into a pre-weighed Al crucible and was kept at 30° C. for 5 minutes, after which it was heated at 10° C./min from 30° C. to 350° C. A nitrogen purge of 40 ml/min was maintained over the sample. The software used for data collection and evaluation was STARe Software v12.10 build 5937. No corrections were applied to the thermogram.

[3] = Solid state characterization of salts obtained as solids; type: physicochemical
[4] = Method: The X-ray powder diffraction studies were performed using a Bruker AXS D2 PHASER in Bragg-Brentano configuration. Using a Cu anode at 30 kV, 10 mA; sample stage standard rotating; monochromatisation by a Kβ-filter (0.5% Ni). Slits: fixed divergence slits 1.0 mm (=0.61°), primary axial Soller slit 2.5°, secondary axial Soller slit 2.5°. Detector: Linear detector LYNXEYE with receiving slit 5° detector opening. […] Measurement conditions: scan range 5 to 45° 2theta, sample rotation 5 rpm, 0.5 s/step, 0.010°/step, 3.0 mm detector slit; and all measuring conditions were logged in the instrument control file. As system suitability, corundum sample A26-826-S(NIST standard) was measured daily.
Remark: listed apart in the source
[5] = not given; remark: listed apart in the source
[6] = Shake-flask solubility study; conditions: 20° C.
[7] = Hygroscopicity, open flasks in unconditioned ambient air for 24 hours; conditions: open flask; for Hygroscopicity (assessment in words): ambient air; for Absolute weight / Weight increase: room temperature, unconditioned ambient air
Method: 100 mg samples of the two crystalline salts were stored in open flasks for 24 hours side by side at room temperature in unconditioned ambient air and weight measurements occurred at time 0 and after 24 hours (Table 6).

[8] = literature; cited from earlier work
[9] = Acetic acid, sample DF1181-5-S11
[10] = Acetonitrile, sample DF1181-5-S7
[11] = Dichloromethane, sample DF1181-5-S2
[12] = Ethyl acetate, sample DF1181-5-S5
[13] = Methyl tert-butyl ether, sample DF1181-5-S3

N#Cc1ccc([C@H]2CCCc3cncn32)cc1.O=P(O)(O)O
Reversibility of water uptake ([1]; DVS sorption/desorption cycles): reversible | Crystalline form upon DVS treatment (XRPD) ([1]; before and after DVS cycles): does not change | Mass loss upon heating [2]: 1.4% | Crystallinity [3]: good | Hygroscopicity (DVS) [3]: low | Polymorph tendency (XRPD) [3]: Not observed | Solid phase transition (XRPD) [3]: Not observed | Solvation [3]: anhydrous | Water solubility [3]: good | XRPD after solubility determination [4, 9]: Amorphous | XRPD after solubility determination ([4]; Acetone, sample DF1181-5-S4): Form I-Conform starting material | XRPD after solubility determination [4, 10]: Form I-Conform starting material | XRPD after solubility determination [4, 11]: Form I-Conform starting material | XRPD after solubility determination ([4]; Ethanol, sample DF1181-5-S6): Form I-Conform starting material | XRPD after solubility determination [4, 12]: Form I-Conform starting material | XRPD after solubility determination ([4]; Methanol, sample DF1181-5-S1): Form I-Conform starting material | XRPD after solubility determination [4, 13]: Form I-Conform starting material | XRPD after solubility determination ([4]; Toluene, sample DF1181-5-S10): Form I-Conform starting material | XRPD after solubility determination ([4]; Water, sample DF1181-5-S9): Form I-Conform starting material | XRPD after solubility determination ([4]; n-Heptane, sample DF1181-5-S8): Form I-Conform starting material | XRPD (polymorphic form) (wells 1-6, solvent Formic acid, co-solvent Water): Form I | XRPD (polymorphic form) (wells 7-12, solvent 2-Butanone, co-solvent n-Heptane): Form I | XRPD (polymorphic form) (wells 13-18, solvent Acetic acid, co-solvent Water): Form I | XRPD (polymorphic form) (wells 19-24, solvent Cyclohexanone, co-solvent n-Heptane): Form I | XRPD (polymorphic form) (wells 25-30, solvent Methanol, co-solvent Water): Form I | XRPD (polymorphic form) (wells 31-36, solvent Ethylacetate, co-solvent n-Heptane): Form I | XRPD (polymorphic form) (wells 37-42, solvent Ethanol, co-solvent Water): Form I | XRPD (polymorphic form) (wells 43-48, solvent Isopropyl acetate, co-solvent n-Heptane): Form I | XRPD (polymorphic form) (wells 49-54, solvent 2-Propanol, co-solvent Water): Form I | XRPD (polymorphic form) (wells 55-60, solvent Cyclopentyl methyl ether, co-solvent n-Heptane): Form I | XRPD (polymorphic form) (wells 61-66, solvent Acetone, co-solvent Water): Form I | XRPD (polymorphic form) (wells 67-72, solvent Toluene, co-solvent n-Heptane): Form I | XRPD (polymorphic form) (wells 79-84, solvent Cyclohexane, co-solvent n-Heptane): Form I | XRPD (polymorphic form) (wells 85-90, solvent Tetrahydrofuran, co-solvent Water): Form I | XRPD (polymorphic form) (wells 91-96, solvent Chlorobenzene, co-solvent n-Heptane): Form I | Appearance ([5]; 25° C./60% RH, 1 month): White | Chiral Purity ([5]; 25° C./60% RH, 1 month): >99.5 | Polymorph by XRPD ([5]; 25° C./60% RH, 1 month): Conform | Purity by HPLC ([5]; 25° C./60% RH, 1 month): 99.77 | Water content ([5]; 25° C./60% RH, 1 month): 0.2 | Appearance ([5]; 25° C./60% RH, 3 months): White | Chiral Purity ([5]; 25° C./60% RH, 3 months): >99.5 | Polymorph by XRPD ([5]; 25° C./60% RH, 3 months): Conform | Purity by HPLC ([5]; 25° C./60% RH, 3 months): 99.81 | Water content ([5]; 25° C./60% RH, 3 months): 0.2 | Appearance ([5]; 25° C./60% RH, 6 months): White | Chiral Purity ([5]; 25° C./60% RH, 6 months): >99.5 | Polymorph by XRPD ([5]; 25° C./60% RH, 6 months): Conform | Purity by HPLC ([5]; 25° C./60% RH, 6 months): 99.82 | Water content ([5]; 25° C./60% RH, 6 months): 0.2 | Appearance ([5]; 25° C./60% RH, 9 months): White | Chiral Purity ([5]; 25° C./60% RH, 9 months): >99.5 | Polymorph by XRPD ([5]; 25° C./60% RH, 9 months): Conform | Purity by HPLC ([5]; 25° C./60% RH, 9 months): 99.84 | Water content ([5]; 25° C./60% RH, 9 months): 0.2 | Appearance ([5]; 25° C./60% RH, 12 months): White | Chiral Purity ([5]; 25° C./60% RH, 12 months): >99.5 | Polymorph by XRPD ([5]; 25° C./60% RH, 12 months): Conform | Purity by HPLC ([5]; 25° C./60% RH, 12 months): 99.81 | Water content ([5]; 25° C./60% RH, 12 months): 0.3 | Appearance ([5]; 25° C./60% RH, Initial): White | Chiral Purity ([5]; 25° C./60% RH, Initial): >99.5 | Polymorph by XRPD ([5]; 25° C./60% RH, Initial): Conform | Purity by HPLC ([5]; 25° C./60% RH, Initial): 99.87 | Water content ([5]; 25° C./60% RH, Initial): 0.3 | Appearance ([5]; 30° C./65%RH, 1 month): White | Chiral Purity ([5]; 30° C./65%RH, 1 month): >99.5 | Polymorph by XRPD ([5]; 30° C./65%RH, 1 month): Conform | Purity by HPLC ([5]; 30° C./65%RH, 1 month): 99.76 | Water content ([5]; 30° C./65%RH, 1 month): 0.2 | Appearance ([5]; 30° C./65%RH, 3 months): White | Chiral Purity ([5]; 30° C./65%RH, 3 months): >99.5 | Polymorph by XRPD ([5]; 30° C./65%RH, 3 months): Conform | Purity by HPLC ([5]; 30° C./65%RH, 3 months): 99.81 | Water content ([5]; 30° C./65%RH, 3 months): 0.3 | Appearance ([5]; 30° C./65%RH, 6 months): White | Chiral Purity ([5]; 30° C./65%RH, 6 months): >99.5 | Polymorph by XRPD ([5]; 30° C./65%RH, 6 months): Conform | Purity by HPLC ([5]; 30° C./65%RH, 6 months): 99.84 | Water content ([5]; 30° C./65%RH, 6 months): 0.2 | Appearance ([5]; 30° C./65%RH, 9 months): White | Chiral Purity ([5]; 30° C./65%RH, 9 months): >99.5 | Polymorph by XRPD ([5]; 30° C./65%RH, 9 months): Conform | Purity by HPLC ([5]; 30° C./65%RH, 9 months): 99.86 | Water content ([5]; 30° C./65%RH, 9 months): 0.2 | Appearance ([5]; 30° C./65%RH, 12 months): White | Chiral Purity ([5]; 30° C./65%RH, 12 months): >99.5 | Polymorph by XRPD ([5]; 30° C./65%RH, 12 months): Conform | Purity by HPLC ([5]; 30° C./65%RH, 12 months): 99.85 | Water content ([5]; 30° C./65%RH, 12 months): 0.3 | Appearance ([5]; 30° C./65%RH, Initial): White | Chiral Purity ([5]; 30° C./65%RH, Initial): >99.5 | Polymorph by XRPD ([5]; 30° C./65%RH, Initial): Conform | Purity by HPLC ([5]; 30° C./65%RH, Initial): 99.87 | Water content ([5]; 30° C./65%RH, Initial): 0.3 | Appearance ([5]; 40° C./75% RH, 1 month): White | Chiral Purity ([5]; 40° C./75% RH, 1 month): >99.5 | Polymorph by XRPD ([5]; 40° C./75% RH, 1 month): Conform | Purity by HPLC ([5]; 40° C./75% RH, 1 month): 99.80 | Water content ([5]; 40° C./75% RH, 1 month): 0.3 | Appearance ([5]; 40° C./75% RH, 3 months): White | Chiral Purity ([5]; 40° C./75% RH, 3 months): >99.5 | Polymorph by XRPD ([5]; 40° C./75% RH, 3 months): Conform | Purity by HPLC ([5]; 40° C./75% RH, 3 months): 99.79 | Water content ([5]; 40° C./75% RH, 3 months): 0.5 | Appearance ([5]; 40° C./75% RH, 6 months): White | Chiral Purity ([5]; 40° C./75% RH, 6 months): >99.5 | Polymorph by XRPD ([5]; 40° C./75% RH, 6 months): Conform | Purity by HPLC ([5]; 40° C./75% RH, 6 months): 99.88 | Water content ([5]; 40° C./75% RH, 6 months): 0.3 | Appearance ([5]; 40° C./75% RH, Initial): White | Chiral Purity ([5]; 40° C./75% RH, Initial): >99.5 | Polymorph by XRPD ([5]; 40° C./75% RH, Initial): Conform | Purity by HPLC ([5]; 40° C./75% RH, Initial): 99.87 | Water content ([5]; 40° C./75% RH, Initial): 0.3 | Long-term stability (purity, water content, chiral purity), in words ([5]; all assessed stability conditions and time periods): very stable | Solubility [6, 9]: 118 to 1180 mg/mL | Solubility ([6]; Acetone, sample DF1181-5-S4): <0.09 mg/mL | Solubility [6, 10]: <0.11 mg/mL | Solubility [6, 11]: <0.10 mg/mL | Solubility ([6]; Ethanol, sample DF1181-5-S6): 0.1 to 1.0 mg/mL | Solubility [6, 12]: <0.09 mg/mL | Solubility ([6]; Methanol, sample DF1181-5-S1): 112 to 1120 mg/mL | Solubility [6, 13]: <0.11 mg/mL | Solubility ([6]; Toluene, sample DF1181-5-S10): <0.10 mg/mL | Solubility ([6]; Water, sample DF1181-5-S9): >1000 mg/mL | Solubility ([6]; n-Heptane, sample DF1181-5-S8): <0.11 mg/mL | Hygroscopicity (assessment in words) [7]: non-hygroscopic | Absolute weight [7]: 103.9 mg | Weight increase ([7]; listed as Phosphate Salt): 0.57%

Cl.N#Cc1ccc([C@H]2CCCc3cncn32)cc1
Hygroscopicity (in words) [8]: highly hygroscopic | Hygroscopicity (assessment in words) [7]: significant hygroscopicity | Absolute weight [7]: 113.2 mg | Weight increase [7]: 13.1% | Weight increase ([7]; listed as Chloride Salt): 13.1%
